For two molecules, IC50 and EC50 results are on record in ChEMBL document CHEMBL1201862, “PubChem BioAssay data set” (2004).

Structures are written as SMILES. Activity calls are given as the source filed them.

Assay type in all cases: functional
Experiment [1] addresses T1, Neuropeptides B/W receptor type 1 (Homo sapiens, UniProt P48145).
T1 sequence (P48145 whole entry): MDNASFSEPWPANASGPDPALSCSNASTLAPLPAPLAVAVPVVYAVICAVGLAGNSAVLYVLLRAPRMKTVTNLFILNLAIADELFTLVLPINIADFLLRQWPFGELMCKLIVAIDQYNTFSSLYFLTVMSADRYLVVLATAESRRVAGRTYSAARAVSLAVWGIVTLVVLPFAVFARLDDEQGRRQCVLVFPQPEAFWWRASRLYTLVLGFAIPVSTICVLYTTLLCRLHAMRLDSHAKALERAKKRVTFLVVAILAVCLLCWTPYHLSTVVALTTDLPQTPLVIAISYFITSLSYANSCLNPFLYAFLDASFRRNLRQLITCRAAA
In words: GPR7 antagonist potency, late-stage follow-up, cell-based, fluorescence, dose response, set 5 (AID 588566).

Experiment [2] has as its target Melanin-concentrating hormone receptor 1 (Homo sapiens, UniProt Q99705). In words: Late-stage fluorescence-based counterscreen for antagonists of the G-protein coupled receptor 7 (GPR7): cell-based dose response assay to identify antagonists of the melanin-concentrating hormone receptor 1 (MCHR1) Set 5. (A counterscreen serves to expose hits that act by an unwanted route or on another target.)

Experiment [3] is described as follows: SAR analysis of small molecule activators of Apaf-1 using a LZ-Caspase-9/Caspase-3 Fluorescent Selectivity assay - Set 2. Particulars: read-out: EC50_Mean.
For experiment [4], the target named is T2, Apoptotic protease-activating factor 1 (Homo sapiens, UniProt O14727).
T2 sequence (O14727 whole entry): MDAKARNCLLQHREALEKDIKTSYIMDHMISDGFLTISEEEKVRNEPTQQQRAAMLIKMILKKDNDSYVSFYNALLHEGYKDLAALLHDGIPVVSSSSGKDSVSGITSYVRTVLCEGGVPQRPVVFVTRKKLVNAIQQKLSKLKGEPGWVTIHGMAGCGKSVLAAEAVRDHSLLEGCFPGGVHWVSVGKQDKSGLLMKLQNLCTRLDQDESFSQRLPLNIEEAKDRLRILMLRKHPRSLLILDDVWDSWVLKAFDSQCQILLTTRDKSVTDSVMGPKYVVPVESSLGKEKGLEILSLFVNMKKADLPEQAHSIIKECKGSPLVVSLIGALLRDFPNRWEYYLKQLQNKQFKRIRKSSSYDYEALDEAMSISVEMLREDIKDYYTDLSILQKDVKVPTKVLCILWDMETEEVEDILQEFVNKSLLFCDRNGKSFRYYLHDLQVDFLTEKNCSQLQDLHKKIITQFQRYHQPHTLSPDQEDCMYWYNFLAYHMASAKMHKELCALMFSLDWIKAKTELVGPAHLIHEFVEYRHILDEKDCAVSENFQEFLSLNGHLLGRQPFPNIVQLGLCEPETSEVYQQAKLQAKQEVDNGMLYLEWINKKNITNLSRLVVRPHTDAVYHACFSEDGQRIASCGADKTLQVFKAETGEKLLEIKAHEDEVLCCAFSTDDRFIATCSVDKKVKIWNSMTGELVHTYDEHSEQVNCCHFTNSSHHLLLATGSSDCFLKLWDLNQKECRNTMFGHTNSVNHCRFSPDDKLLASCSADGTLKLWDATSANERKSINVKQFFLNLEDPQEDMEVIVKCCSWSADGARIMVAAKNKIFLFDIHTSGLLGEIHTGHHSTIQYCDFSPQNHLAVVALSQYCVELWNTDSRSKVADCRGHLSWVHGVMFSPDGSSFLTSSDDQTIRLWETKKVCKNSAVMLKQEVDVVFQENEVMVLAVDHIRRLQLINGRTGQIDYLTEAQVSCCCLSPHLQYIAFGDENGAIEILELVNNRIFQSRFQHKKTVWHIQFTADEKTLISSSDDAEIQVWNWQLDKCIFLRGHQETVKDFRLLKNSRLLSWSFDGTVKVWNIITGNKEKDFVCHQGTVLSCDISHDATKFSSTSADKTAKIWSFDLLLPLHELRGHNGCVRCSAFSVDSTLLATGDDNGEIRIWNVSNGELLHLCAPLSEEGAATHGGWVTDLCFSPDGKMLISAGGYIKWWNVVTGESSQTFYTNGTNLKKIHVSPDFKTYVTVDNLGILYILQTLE
In words: SAR analysis of small molecule Activators of Apaf-1 in a Fluorescent assay - set 2. Particulars: read-out: EC50_Mean.

Sequence of Melanin-concentrating hormone receptor 1 (Q99705 whole entry): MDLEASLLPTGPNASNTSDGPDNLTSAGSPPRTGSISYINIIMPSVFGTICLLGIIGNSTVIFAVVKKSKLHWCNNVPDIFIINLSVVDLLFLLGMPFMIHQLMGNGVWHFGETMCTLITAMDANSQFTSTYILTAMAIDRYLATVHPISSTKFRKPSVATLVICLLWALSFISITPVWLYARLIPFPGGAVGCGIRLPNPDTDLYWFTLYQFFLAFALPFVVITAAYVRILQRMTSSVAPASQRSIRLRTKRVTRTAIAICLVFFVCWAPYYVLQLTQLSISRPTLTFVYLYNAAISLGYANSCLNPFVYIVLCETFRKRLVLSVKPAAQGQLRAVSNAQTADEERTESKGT

For orientation: IC50 means the concentration that gives 50% inhibition. With `COc1ccc(Oc2c(C(=O)O)cnn(Cc3cccc4ccccc34)c2=O)cc1`, the IC50 in experiment [1] and in experiment [2] was > 20 µM (inactive) each time.

Regarding `COc1cc(OC)c(C2=NOC(C(=O)O)C2)cc1Cl` (centres undefined), the EC50 in experiment [3] and in experiment [4] was > 100 µM (inactive) each time.
